Assay [1] has as its system A498 renal cancer cells. On the procedure:
(§1) The effective dose of NaB on renal cancer was determined by colorimetric tetrazolium (MTS) viability assay on renal cancer cells (ACHN and A498) and healthy renal cells (RPTEC). MTS (3-(4,5-dimethyl-thiazol-2-yl)-5-(3-carboxy-methoxy-phenyl)-2-(4-sulfo-phenyl)-2H-tetrazolium) is a colorimetric assay based on the tetrazolium salt. The assay measures the enzyme activity which reduces MTS to the purple formazan. Cell cultures incubated for two hours are read by measuring the absorbance at 490 nm wavelength by means of ELISA. The NaB compound is dissolved at different concentrations (at ratios of 500 μg/ml, 1000 μg/ml, 1500 μg/ml, 2000 μg/ml, 2500 μg/ml, 3000 μg/ml, 3500 μg/ml for renal cancer cells, and 500 μg/ml, 1000 μg/ml, 2500 μg/ml, 5000 μg/ml, 7000 μg/ml for healthy renal cells) in the medium suitable for the cell used (30 seconds of vortexing is applied after the addition of the agent), filtered through 0.22 micron filters, and sterilized. MTS assays are performed at hours 24, 48, and 72, and as a result, the concentrations of dead cells at the IC50 dose are determined and the next steps are continued with these dosages.

Assay [2] has as its system ACHN renal cancer cells. As for the experimental part:
as §1

The test system of assay [3] is ACHN and A498 renal cancer cells. As to conditions: dosage determined by the MTS assay.
Protocol: Cell proliferation analyses of renal cancer cells treated with the agent at the dosage determined by the MTS assay are performed by EdU (Ethinyl-2′-deoxyuridine) assay. […] For this assay, 10 uM EdU is applied to the cells cultured on slides placed in 6-well plates. Following the incubation, cells are fixed for 15 minutes with 3.7% formaldehyde diluted in PBS, and then washed with 3% BSA also diluted in PBS. Cell membrane permeability is increased by treatment with 0.5% nonionic surfactant diluted in PBS at room temperature for 20 minutes. After a final washing with 3% BSA solution, the reaction cocktail is added to the cells. Cells are incubated at room temperature for 30 minutes, and then the EdU-stained cells, which are actively synthesizing DNA, are observed under a confocal microscope.
In assay [4] the test system is renal cancer cells (ACHN and A498) and healthy renal cells (RPTEC). As to conditions: IC50 dose for cancer cells applied 72 hours; cancer vs healthy cells.
Protocol: Whether the death rates of renal cancer cells treated with the agent at the dosage determined by the MTS assay are dependent on apoptosis or not is determined by Annexin V assay. […] Annexin V binds to PSs, which were translocated to the outer surface of the cell, thereby making the apoptotic cell visible and it is measured by flow cytometry. Since Annexin V binding can also be observed on the surface of necrotic cells, Propidium Iodide (Red Fluorescence), which stains only dead cells, was added as a second stain. Cells, which are simultaneously stained with Annexin V-FITC (Green Fluorescence) and Propidium Iodide (Red Fluorescence), allow viable cells (FITC−PI−), early apoptotic cells (FITC+PI−), and late apoptotic or necrotic cells (FITC+PI+) to be distinguished from each other. Cells marked with Annexin V-FITCH-conjugated markers are analyzed by flow cytometry.

Read-outs that look alike come from different tables or passages of the source. Bounds are passed on as bounds.

Regarding sodium pentaborate pentahydrate, the “IC50 determined by MTS” value was above 7000 µg/mL in assay [1] (A498, Hour 24); 1900 µg/mL in assay [1] (A498, Hour 48); above 7000 µg/mL in assay [2] (Hour 24); 2000 µg/mL in assay [2] (Hour 48). Also, the “IC50 determined by MTS (dose which killed 50% of renal cancer cells)” value in assay [1] (A498, Hour 72) was found to be 1400 µg/mL; in assay [2] (Hour 72) it was 1550 µg/mL. In addition, the IC50 in assay [1] (read-out: dose which killed 50% of renal cancer cells, A498, molar equivalent of the μg/ml value) stood at 4.7 mM; in assay [2] (read-out: dose which killed 50% of renal cancer cells, molar equivalent of the μg/ml value), 5.2 mM. In addition, the “effect on cell proliferation” value in assay [3] was “slows down cell proliferation”. Further, the “programmed cell death (apoptosis)” value in assay [4] is given as “selectively leads cancer cells to programmed cell death”.

Values taken from US20250325581A1, “USE OF SODIUM PENTABORATE PENTAHYDRATE AS A CHEMOTHERAPEUTIC AGENT” (YEDITEPE UNIVERSITESI, priority 2022, published 2025).
